For the assay, the target named is T1, TmcAHAS (large catalytic subunit of acetohydroxyacid synthase of Thermotoga maritima) (Thermotoga maritima, UniProt Q9WZ18).
T1 construct: gene TM_0548; catalytic subunit alone, without regulatory subunit; gene from genomic DNA in pET28a (NdeI/BamHI), N-terminal His6 tag, E. coli Rosetta(DE3), Ni-NTA purified, about 68 kDa on SDS-PAGE; forward primer after NdeI site encodes MLLDEI
The assay can be described thus: photometric creatine/alpha-naphthol assay of acetoin at […] nm, Michaelis-Menten fit. The format is biochemical. The conditions noted are these: 50 mM phosphate pH 8.0, 80 °C, 10 min, 10 μM FAD, 1 mM ThDP, 10 mM Mg2+; catalytic subunit alone; read-out: Km for pyruvate.

A word on the Km: it is the concentration of substrate that gives half-maximal velocity.

SMILES strings stand for the structures.

T1 sequence (Q9WZ18 entry or part of it): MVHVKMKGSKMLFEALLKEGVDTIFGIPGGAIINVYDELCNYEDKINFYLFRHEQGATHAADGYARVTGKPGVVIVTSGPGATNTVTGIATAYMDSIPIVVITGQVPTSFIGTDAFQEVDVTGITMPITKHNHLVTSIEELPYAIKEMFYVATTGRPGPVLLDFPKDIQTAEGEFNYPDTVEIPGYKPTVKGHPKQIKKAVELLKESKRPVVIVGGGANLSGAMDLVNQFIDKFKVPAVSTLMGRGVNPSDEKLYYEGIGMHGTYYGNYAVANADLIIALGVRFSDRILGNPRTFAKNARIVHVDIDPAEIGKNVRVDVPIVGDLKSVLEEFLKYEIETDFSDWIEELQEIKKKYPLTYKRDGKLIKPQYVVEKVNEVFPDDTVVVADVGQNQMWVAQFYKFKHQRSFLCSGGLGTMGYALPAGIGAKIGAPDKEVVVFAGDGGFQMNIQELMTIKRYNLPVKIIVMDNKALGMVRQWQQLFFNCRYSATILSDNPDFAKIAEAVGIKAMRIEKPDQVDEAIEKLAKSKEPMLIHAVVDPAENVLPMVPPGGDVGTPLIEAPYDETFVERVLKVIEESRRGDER

As to `CC(=O)C(=O)O` [pyruvate], the Km was determined as 19.1 ± 1.6 mM.

Source of the values: publication PMC7505981, “Preparation of a whole cell catalyst overexpressing acetohydroxyacid synthase of Thermotoga maritima and its application in the syntheses of α-hydroxyketones” (Scientific Reports, 2020).
